In data set [1] the target is CDKN2B-AS1. Kind of data set: HEK293-TLR7, 100 nM ASO, then resiquimod.
Data set [2] has as its target CDKN2B-AS1. Kind of data set: HEK293-TLR8, 100 nM ASO, then resiquimod.

HELM strings list units from the 5' end as sugar, base in round brackets, then linkage (d deoxyribose, r ribose, m 2'-O-methyl, p phosphodiester). [sp] = phosphorothioate linkage

Regarding “RNA1{m(A)[sp].m(A)[sp].m(U)[sp].m(U)[sp].m(U)[sp].d(A)[sp].d(A)[sp].d(A)[sp].d(G)[sp].d(C)[sp].d(A)[sp].d(T)[sp].d(G)[sp].d(A)[sp].d(A)[sp].m(U)[sp].m(A)[sp].m(U)[sp].m(U)[sp].m(A)}$$$$”, the TLR7 signal (NF-kB luciferase) (% of resiquimod alone) with CDKN2B-AS1 [1] is 46.8. In the data set with CDKN2B-AS1 [2], the TLR8 potentiation (NF-kB luciferase) (fold of resiquimod alone) turned out to be 3.29.
The like results for “RNA1{m(G)[sp].m(U)[sp].m(C)[sp].m(A)[sp].m(A)[sp].d(A)[sp].d(C)[sp].d(C)[sp].d(T)[sp].d(A)[sp].d(G)[sp].d(A)[sp].d(A)[sp].d(A)[sp].d(G)[sp].m(A)[sp].m(A)[sp].m(G)[sp].m(C)[sp].m(A)}$$$$” were, in that order, 23.6 and 1.6.
For the substance “RNA1{m(A)[sp].m(G)[sp].m(G)[sp].m(A)[sp].m(U)[sp].d(T)[sp].d(A)[sp].d(A)[sp].d(A)[sp].d(A)[sp].d(C)[sp].d(A)[sp].d(G)[sp].d(A)[sp].d(T)[sp].m(U)[sp].m(A)[sp].m(A)[sp].m(U)[sp].m(A)}$$$$”, the TLR7 signal (NF-kB luciferase) (% of resiquimod alone) in the data set with CDKN2B-AS1 [1] was determined as 36.3. Also, the TLR8 potentiation (NF-kB luciferase) (fold of resiquimod alone) with CDKN2B-AS1 [2] is 2.19.
“RNA1{m(G)[sp].m(U)[sp].m(C)[sp].m(G)[sp].m(U)[sp].d(G)[sp].d(G)[sp].d(C)[sp].d(A)[sp].d(A)[sp].d(A)[sp].d(T)[sp].d(A)[sp].d(G)[sp].d(T)[sp].m(C)[sp].m(C)[sp].m(U)[sp].m(A)[sp].m(G)}$$$$” yielded a TLR7 signal (NF-kB luciferase) (% of resiquimod alone) with CDKN2B-AS1 [1] of 27.5. For the same substance, the TLR8 potentiation (NF-kB luciferase) (fold of resiquimod alone) with CDKN2B-AS1 [2] was 2.12.
Turning to “RNA1{m(G)[sp].m(U)[sp].m(G)[sp].m(U)[sp].m(U)[sp].d(T)[sp].d(T)[sp].d(T)[sp].d(A)[sp].d(A)[sp].d(T)[sp].d(T)[sp].d(T)[sp].d(T)[sp].d(G)[sp].m(U)[sp].m(A)[sp].m(G)[sp].m(A)[sp].m(G)}$$$$”, in the data set with CDKN2B-AS1 [1], the TLR7 signal (NF-kB luciferase) (% of resiquimod alone) came to 23.6. Moreover, in the data set with CDKN2B-AS1 [2], the TLR8 potentiation (NF-kB luciferase) (fold of resiquimod alone) is 1.31.
On the same counts, the results for “RNA1{m(C)[sp].m(C)[sp].m(A)[sp].m(U)[sp].m(G)[sp].d(T)[sp].d(C)[sp].d(C)[sp].d(C)[sp].d(A)[sp].d(G)[sp].d(G)[sp].d(C)[sp].d(C)[sp].d(T)[sp].m(C)[sp].m(C)[sp].m(A)[sp].m(G)[sp].m(U)}$$$$” are 41.4 and 1.24.
In the data set with CDKN2B-AS1 [1], “RNA1{m(A)[sp].m(A)[sp].m(A)[sp].m(A)[sp].m(U)[sp].d(A)[sp].d(A)[sp].d(G)[sp].d(G)[sp].d(G)[sp].d(G)[sp].d(A)[sp].d(A)[sp].d(T)[sp].d(A)[sp].m(G)[sp].m(G)[sp].m(G)[sp].m(G)[sp].m(A)}$$$$” had a TLR7 signal (NF-kB luciferase) (% of resiquimod alone) of 68.5. Further, in the data set with CDKN2B-AS1 [2], the TLR8 potentiation (NF-kB luciferase) (fold of resiquimod alone) was 0.86.
The like results for “RNA1{m(U)[sp].m(U)[sp].m(A)[sp].m(A)[sp].m(A)[sp].d(T)[sp].d(A)[sp].d(A)[sp].d(T)[sp].d(C)[sp].d(T)[sp].d(A)[sp].d(G)[sp].d(T)[sp].d(T)[sp].m(U)[sp].m(G)[sp].m(A)[sp].m(A)[sp].m(G)}$$$$” were, in that order, 25.7 and 3.96.
The like results for “RNA1{m(A)[sp].m(U)[sp].m(A)[sp].m(U)[sp].m(C)[sp].d(T)[sp].d(G)[sp].d(C)[sp].d(T)[sp].d(G)[sp].d(C)[sp].d(C)[sp].d(C)[sp].d(A)[sp].d(C)[sp].m(C)[sp].m(U)[sp].m(U)[sp].m(C)[sp].m(U)}$$$$” were, in that order, 47.5 and 2.55.
As to “RNA1{m(G)[sp].m(A)[sp].m(A)[sp].m(A)[sp].m(A)[sp].d(G)[sp].d(A)[sp].d(T)[sp].d(T)[sp].d(A)[sp].d(T)[sp].d(C)[sp].d(T)[sp].d(T)[sp].d(C)[sp].m(U)[sp].m(U)[sp].m(U)[sp].m(U)[sp].m(A)}$$$$”, in the data set with CDKN2B-AS1 [1], the TLR7 signal (NF-kB luciferase) (% of resiquimod alone) is 34.4. Also, in the data set with CDKN2B-AS1 [2], the TLR8 potentiation (NF-kB luciferase) (fold of resiquimod alone) was 1.31.
The like results for “RNA1{m(U)[sp].m(A)[sp].m(A)[sp].m(A)[sp].m(A)[sp].d(T)[sp].d(A)[sp].d(A)[sp].d(G)[sp].d(G)[sp].d(G)[sp].d(G)[sp].d(A)[sp].d(A)[sp].d(T)[sp].m(A)[sp].m(G)[sp].m(G)[sp].m(G)[sp].m(G)}$$$$” were, in that order, 41 and 1.28.
In the case of “RNA1{m(G)[sp].m(G)[sp].m(A)[sp].m(C)[sp].m(A)[sp].d(C)[sp].d(T)[sp].d(T)[sp].d(A)[sp].d(G)[sp].d(C)[sp].d(T)[sp].d(G)[sp].d(T)[sp].d(T)[sp].m(C)[sp].m(C)[sp].m(U)[sp].m(C)[sp].m(G)}$$$$”, the TLR7 signal (NF-kB luciferase) (% of resiquimod alone) with CDKN2B-AS1 [1] amounted to 45.8. Also, the TLR8 potentiation (NF-kB luciferase) (fold of resiquimod alone) with CDKN2B-AS1 [2] came out at 1.13.
“RNA1{m(G)[sp].m(U)[sp].m(C)[sp].m(U)[sp].m(C)[sp].d(C)[sp].d(A)[sp].d(T)[sp].d(G)[sp].d(T)[sp].d(C)[sp].d(C)[sp].d(C)[sp].d(A)[sp].d(G)[sp].m(G)[sp].m(C)[sp].m(C)[sp].m(U)[sp].m(C)}$$$$”: the TLR7 signal (NF-kB luciferase) (% of resiquimod alone) with CDKN2B-AS1 [1] turned out to be 23.8. Further, the TLR8 potentiation (NF-kB luciferase) (fold of resiquimod alone) in the data set with CDKN2B-AS1 [2] is 1.01.
Take “RNA1{m(C)[sp].m(C)[sp].m(U)[sp].m(A)[sp].m(G)[sp].d(A)[sp].d(A)[sp].d(A)[sp].d(G)[sp].d(A)[sp].d(A)[sp].d(G)[sp].d(C)[sp].d(A)[sp].d(A)[sp].m(A)[sp].m(G)[sp].m(A)[sp].m(U)[sp].m(U)}$$$$”: the TLR7 signal (NF-kB luciferase) (% of resiquimod alone) in the data set with CDKN2B-AS1 [1] is 57.2. Moreover, in the data set with CDKN2B-AS1 [2], the TLR8 potentiation (NF-kB luciferase) (fold of resiquimod alone) came out at 3.58.
The like results for “RNA1{m(A)[sp].m(G)[sp].m(U)[sp].m(C)[sp].m(U)[sp].d(C)[sp].d(C)[sp].d(A)[sp].d(T)[sp].d(G)[sp].d(T)[sp].d(C)[sp].d(C)[sp].d(C)[sp].d(A)[sp].m(G)[sp].m(G)[sp].m(C)[sp].m(C)[sp].m(U)}$$$$” were, in that order, 35.8 and 1.64.
In the case of “RNA1{m(A)[sp].m(U)[sp].m(U)[sp].m(U)[sp].m(C)[sp].d(C)[sp].d(A)[sp].d(C)[sp].d(A)[sp].d(T)[sp].d(G)[sp].d(C)[sp].d(C)[sp].d(C)[sp].d(A)[sp].m(G)[sp].m(U)[sp].m(G)[sp].m(U)[sp].m(U)}$$$$”, the TLR7 signal (NF-kB luciferase) (% of resiquimod alone) in the data set with CDKN2B-AS1 [1] turned out to be 32. Also, the TLR8 potentiation (NF-kB luciferase) (fold of resiquimod alone) in the data set with CDKN2B-AS1 [2] came to 2.06.
The like results for “RNA1{m(U)[sp].m(C)[sp].m(U)[sp].m(C)[sp].m(C)[sp].d(A)[sp].d(T)[sp].d(G)[sp].d(T)[sp].d(C)[sp].d(C)[sp].d(C)[sp].d(A)[sp].d(G)[sp].d(G)[sp].m(C)[sp].m(C)[sp].m(U)[sp].m(C)[sp].m(C)}$$$$” were, in that order, 43.5 and 3.41.
The like results for “RNA1{m(A)[sp].m(A)[sp].m(G)[sp].m(C)[sp].m(A)[sp].d(G)[sp].d(T)[sp].d(C)[sp].d(T)[sp].d(C)[sp].d(C)[sp].d(A)[sp].d(T)[sp].d(G)[sp].d(T)[sp].m(C)[sp].m(C)[sp].m(C)[sp].m(A)[sp].m(G)}$$$$” were, in that order, 35.7 and 1.79.
Substance “RNA1{m(A)[sp].m(G)[sp].m(U)[sp].m(G)[sp].m(G)[sp].d(C)[sp].d(A)[sp].d(C)[sp].d(A)[sp].d(T)[sp].d(A)[sp].d(C)[sp].d(C)[sp].d(A)[sp].d(C)[sp].m(A)[sp].m(C)[sp].m(C)[sp].m(C)[sp].m(U)}$$$$” yielded a TLR7 signal (NF-kB luciferase) (% of resiquimod alone) with CDKN2B-AS1 [1] of 42. In the data set with CDKN2B-AS1 [2], the TLR8 potentiation (NF-kB luciferase) (fold of resiquimod alone) was 2.24.
The like results for “RNA1{m(A)[sp].m(G)[sp].m(G)[sp].m(C)[sp].m(C)[sp].d(T)[sp].d(C)[sp].d(C)[sp].d(A)[sp].d(G)[sp].d(T)[sp].d(G)[sp].d(T)[sp].d(C)[sp].d(T)[sp].m(U)[sp].m(C)[sp].m(U)[sp].m(C)[sp].m(C)}$$$$” were, in that order, 44.7 and 2.19.
On the same counts, the results for “RNA1{m(G)[sp].m(U)[sp].m(G)[sp].m(U)[sp].m(C)[sp].d(C)[sp].d(T)[sp].d(T)[sp].d(C)[sp].d(A)[sp].d(T)[sp].d(G)[sp].d(C)[sp].d(T)[sp].d(T)[sp].m(U)[sp].m(G)[sp].m(G)[sp].m(A)[sp].m(U)}$$$$” are 18.1 and 1.33.
The like results for “RNA1{m(A)[sp].m(A)[sp].m(U)[sp].m(A)[sp].m(U)[sp].d(C)[sp].d(T)[sp].d(G)[sp].d(C)[sp].d(T)[sp].d(G)[sp].d(C)[sp].d(C)[sp].d(C)[sp].d(A)[sp].m(C)[sp].m(C)[sp].m(U)[sp].m(U)[sp].m(C)}$$$$” were, in that order, 43.7 and 1.79.
In turn, “RNA1{m(G)[sp].m(A)[sp].m(U)[sp].m(U)[sp].m(A)[sp].d(A)[sp].d(A)[sp].d(A)[sp].d(C)[sp].d(A)[sp].d(G)[sp].d(A)[sp].d(T)[sp].d(T)[sp].d(A)[sp].m(A)[sp].m(U)[sp].m(A)[sp].m(C)[sp].m(A)}$$$$” came in with a TLR7 signal (NF-kB luciferase) (% of resiquimod alone) with CDKN2B-AS1 [1] of 21.9. Further, in the data set with CDKN2B-AS1 [2], the TLR8 potentiation (NF-kB luciferase) (fold of resiquimod alone) amounted to 0.73.
On the same counts, the results for “RNA1{m(A)[sp].m(G)[sp].m(C)[sp].m(A)[sp].m(G)[sp].d(T)[sp].d(C)[sp].d(T)[sp].d(C)[sp].d(C)[sp].d(A)[sp].d(T)[sp].d(G)[sp].d(T)[sp].d(C)[sp].m(C)[sp].m(C)[sp].m(A)[sp].m(G)[sp].m(G)}$$$$” are 25.5 and 2.81.
The like results for “RNA1{m(A)[sp].m(A)[sp].m(A)[sp].m(A)[sp].m(G)[sp].d(A)[sp].d(T)[sp].d(T)[sp].d(A)[sp].d(T)[sp].d(C)[sp].d(T)[sp].d(T)[sp].d(C)[sp].d(T)[sp].m(U)[sp].m(U)[sp].m(U)[sp].m(A)[sp].m(A)}$$$$” were, in that order, 47.4 and 3.19.

The values are drawn from the OligoGym collection.
